# According to patent US12410124B2 (priority 2019, dated 2025):
# Like-named read-outs stand apart in the source and are kept apart here.
# Experiments:
# [1] = test system: fetal rat midbrain neurons; assay: Survival rate of primary midbrain neurons induced by MPP+ (CCK-8); type: cell-based; conditions: for viability at 5 µM / viability at 10 µM / viability at 20 µM: Rattus norvegicus, Neuron, read-out: Survival rate (%); for survival rate compared with the styryl sulfone prototype compounds: no concentration stated
# Excerpt: The main pathological feature of Parkinson's disease (PD) lies in the degeneration and loss of dopaminergic neuron in the substantia nigra-striatum of the midbrain. 1-Methyl-4-phenylpyridinium (MPP+) has a high affinity to dopamine carriers and a selective toxicity on dopaminergic neurons. Thus, MPP+ is one of the most ideal classic neurotoxins for establishing PD cell models. The primary cell culture of fetal rat midbrain is often used to establish PD cell models in recent years. Although it is more cumbersome and has higher technical requirements than cell line culture, it is closer to the pathological characteristics of PD. Thus, a PD cell model is established using neurons from the primary cell culture of fetal rat midbrain under MPP+ induction, to evaluate the protective effect of target compounds on the model neurons.
# The midbrain was separated from a fetal rat of a 15-day-pregnant SD rat and cut into pieces, then subjected to trypsin digestion, pipetting, screen filtration, and resuspension steps, and inoculated in a 24-well cell culture plate pre-coated with poly-D-lysine. 12 hours after culture, cytarabine was added to inhibit the growth of glial cells. On the 5th day of neuron growth, the toxin MPP+ can be added to make a PD cell model. When detecting the activity of a target compound, the target compound was pre-incubated with midbrain neurons for 3 h, then MPP+ was added, and after 48 h co-incubation the neuronal viability was detected by CCK-8 method and the neuronal survival rate was calculated to evaluate the inhibitory activity of the target compound on the midbrain neuronal PD damage. The experiment included blank control group, MPP+ model group, positive control group (caffeic acid phenethyl ester, CAPE), prototype control group (styryl sulfone compounds 3B, 3C, 3D, and 3G), and target compound group (prepared according to Examples 1-22 in the invention).
# midbrain p-α-s = assay: Midbrain p-α-s protein expression in MPTP Parkinson's disease model mouse (western-blotting); type: in vivo; conditions: midbrain total protein, GAPDH internal reference, gavage 21 consecutive days after MPTP modeling
# Method: (§1) Neurotoxins can be used to establish PD animal models. Currently, 1-methyl-4-phenyl-1,2,3,6-tetrahydropyridine (MPTP) is the sole synthetic toxin which is recognized to induce PD symptoms in human and non-human primates and in mice. Using MPTP subacute modeling method, C57BL/6J male mice were intraperitoneally injected with MPTP 30 mg/kg, once a day for 5 consecutive days. The experiment animals were divided into blank control group, MPTP model group, and compound treatment group. For the […] compound treatment group, the compound was administrated by gavage for 21 consecutive days after the completion of modeling; for the MPTP model group, the normal saline was administrated by gavage for 21 consecutive days after the completion of modeling; and for the blank control group, the normal saline was first intraperitoneally injected for 5 days, and then administrated by gavage for 21 days.
# Alpha-synuclein is an “unfolded protein” in its natural state. It exists in a monomeric form, and participates in the physiological functions such as the release of neurotransmitters, the establishment of synaptic junctions, and the regulation of synaptic plasticity. Under pathological conditions, more than 90% of alpha-synuclein is phosphorylated at serine of position 129 and converted into phosphorylated alpha-synuclein (p-α-s), thereby forming Lewy bodies. The formation of Lewy bodies is one of the main pathological manifestations and pathological mechanisms for Parkinson's disease, and plays an important role in the formation and development of PD. The detection of the p-α-s expression in the midbrain and substantia nigra of PD model mice can evaluate the neuroprotective activity of the compound.
# (§2) Half of experiment mice in each group were taken to extract the total midbrain protein, and the change in the midbrain P-α-s protein expression was determined by western-blotting using GAPDH as the internal reference. The experiment included blank control group, MPTP model group, positive control group (caffeic acid phenethyl ester, CAPE), prototype control group (styryl sulfone compounds 3B, 3C, 3D, and 3G, whose structures are shown as above), and target compound group.
# substantia nigra GFAP = assay: Number of substantia nigra astrocytes with GFAP positive expression in MPTP Parkinson's disease model mouse (immunohistochemistry); type: in vivo; conditions: for Positive cell number (astrocytes with GFAP positive expression): substantia nigra, MPTP Parkinson's disease model mouse, immunohistochemistry
# Method: as §1
# (§3) Neuron-glial cell network homeostasis disorder is an important factor for the selective and progressive death of substantia nigra dopaminergic neurons in PD. In the neurotoxic effect of MPTP, the excessive activations of microglial cells and astrocytes produce a variety of inflammatory cytokines and reactive oxygen species (ROS). These inflammatory factors and ROS amplify their respective toxicities and mediate malignant feedback loop, causing a cascade inflammation response and aggravating the pathological process of PD. CD11b and GFAP are the marker proteins for activations of microglial cells and astrocytes, respectively. Therefore, the effect of the target compounds on the activations of the microglial cells and astrocytes in the substantia nigra, hippocampus, and midbrain areas of MPTP-induced PD mice can be investigated, to explore the mechanism of the anti-PD effect of the target compounds by inhibiting the neuroinflammation.
# Half of experiment mice in each group were taken to separate the midbrain after perfusion and fixation. The tissue was trimmed, and the substantia nigra area was taken to prepare paraffin sections. The GFAP immunohistochemical staining was performed for the statistics of the change in the number of astrocytes with GFAP positive expression. The experiment included blank control group, MPTP model group, positive control group (caffeic acid phenethyl ester, CAPE), prototype control group (styryl sulfone compounds 3B, 3C, 3D, and 3G, whose structures are shown as above), and target compound group.
# midbrain TH = assay: Midbrain TH expression in MPTP Parkinson's disease model mouse (western-blotting); type: in vivo; conditions: midbrain total protein, GAPDH internal reference, gavage 21 days after MPTP modeling
# Method: as §1
# The main cause of PD lies in the pathological changes in the substantia nigra-striatum projection system of the brain and the progressive degeneration and loss of dopaminergic neurons. Tyrosine hydroxylase (TH) is the first enzyme in the biosynthesis of catecholamine neurotransmitters, as well as the first rate-limiting enzyme in the dopamine synthesis. It plays an important role in the synthesis and metabolism of the neurotransmitter DA. The TH in PD animal models and patients has a wide range of abnormal changes, from the gene expression to the enzyme protein content and enzyme activity. The detection of the TH expression in the midbrain and substantia nigra of PD model mice can be used to evaluate the neuroprotective activity of the compound.
# as §2, with “TH” for “P-α-s protein expression”
# midbrain CD11b = assay: Midbrain CD11b protein expression in MPTP Parkinson's disease model mouse (western-blotting); type: in vivo; conditions: for Expression (CD11b/GAPDH): midbrain, MPTP Parkinson's disease model mouse, western-blotting
# Method: as §1, §3
# […] The experiment included blank control group, MPTP model group, positive control group (caffeic acid phenethyl ester, CAPE), prototype control group (styryl sulfone compounds 3B, 3C, 3D), and 3G, whose structures are shown as above), and target compound group.
# [2] = 5 μM, 3 h pre-incubation, 48 h with MPP+
# [3] = 10 μM, 3 h pre-incubation, 48 h with MPP+
# [4] = 20 μM, 3 h pre-incubation, 48 h with MPP+
smiles,measurement,setting,value
"CCN(CC)C(=O)Oc1ccc(/C=C/S(=O)(=O)Cc2ccc(C(F)(F)F)cc2)cc1OC(=O)N(CC)CC [Compound B1-1, (E)-4-{2-[(4-trifluoromethylphenyl)mesyl]ethenyl}-1,2-phenylenebis(diethylcarbamate)]",viability at 5 µM,[1]; [2],78.5 ± 4.12%
same,viability at 10 µM,[1]; [3],89.7 ± 2.89%
same,viability at 20 µM,[1]; [4],93.8 ± 1.59%
same,survival rate compared with the styryl sulfone prototype compounds,[1],significantly increased
same,Expression (p-α-s/GAPDH),midbrain p-α-s,0.23 ± 0.12
same,number of substantia nigra astrocytes with GFAP positive expression compared with the styryl sulfone prototype compounds,substantia nigra GFAP,significantly lower
same,Positive cell number (astrocytes with GFAP positive expression),substantia nigra GFAP,88 ± 5
same,Expression (TH/GAPDH),midbrain TH,0.92 ± 0.02
same,midbrain CD11b protein expression compared with the styryl sulfone prototype compounds,midbrain CD11b,equivalent or lower
same,Expression (CD11b/GAPDH),midbrain CD11b,0.41 ± 0.05
"CC(=O)Oc1ccc(/C=C/S(=O)(=O)Cc2c(F)c(F)c(F)c(F)c2F)cc1OC(=O)NC(=O)c1ccc([N+](=O)[O-])c(C)c1 [Compound D5-4, (E)-2-[N-(3-methyl-4-nitrobenzoyl)carbamoyloxy]-4-{2-[(perfluorophenyl)mesyl]ethenyl}phenyl acetate]",viability at 5 µM,[1]; [2],60.5 ± 3.19%
same,viability at 10 µM,[1]; [3],73.2 ± 4.53%
same,viability at 20 µM,[1]; [4],87.5 ± 2.16%
same,Expression (p-α-s/GAPDH),midbrain p-α-s,0.64 ± 0.12
same,Positive cell number (astrocytes with GFAP positive expression),substantia nigra GFAP,97 ± 5
same,Expression (TH/GAPDH),midbrain TH,1.19 ± 0.05
same,Expression (CD11b/GAPDH),midbrain CD11b,1.11 ± 0.10
"CC(C)(C)c1ccc(CS(=O)(=O)/C=C/c2ccc(O)c(O)c2)cc1 [Compound 3G, (E)-4-{2-[(4-t-butylphenyl)mesyl]ethenyl}benzene-1,2-diol, reference compound]",viability at 5 µM,[1]; [2],51.4 ± 3.54%
same,viability at 10 µM,[1]; [3],68.4 ± 1.89%
same,viability at 20 µM,[1]; [4],71.2 ± 3.75%
same,Expression (p-α-s/GAPDH),midbrain p-α-s,0.61 ± 0.08
same,Positive cell number (astrocytes with GFAP positive expression),substantia nigra GFAP,130 ± 6
same,Expression (TH/GAPDH),midbrain TH,0.45 ± 0.05
same,Expression (CD11b/GAPDH),midbrain CD11b,0.67 ± 0.12
"CCN(CC)C(=O)Oc1ccc(/C=C/S(=O)(=O)Cc2ccc(Cl)cc2)cc1OC(=O)N(CC)CC [Compound D1-1, (E)-4-{2-[(4-chlorophenyl)mesyl]ethenyl}-1,2-phenylenebis(diethylcarbamate)]",viability at 5 µM,[1]; [2],80.3 ± 2.67%
same,viability at 10 µM,[1]; [3],94.6 ± 3.76%
same,viability at 20 µM,[1]; [4],98 ± 1.32%
same,survival rate compared with the styryl sulfone prototype compounds,[1],significantly increased
same,Expression (p-α-s/GAPDH),midbrain p-α-s,0.42 ± 0.10
same,number of substantia nigra astrocytes with GFAP positive expression compared with the styryl sulfone prototype compounds,substantia nigra GFAP,significantly lower
same,Positive cell number (astrocytes with GFAP positive expression),substantia nigra GFAP,64 ± 3
same,Expression (TH/GAPDH),midbrain TH,1.27 ± 0.05
same,midbrain CD11b protein expression compared with the styryl sulfone prototype compounds,midbrain CD11b,equivalent or lower
same,Expression (CD11b/GAPDH),midbrain CD11b,0.33 ± 0.05
CN(C)c1ccc(CC(=O)Oc2cc(/C=C/S(=O)(=O)C(Br)c3ccc(Cc4ccc(N(C)C)cc4)cc3)ccc2OC(=O)N2CCCC2C(F)(F)F)cc1 (centres unmarked) [Compound M1-5],viability at 5 µM,[1]; [2],68.2 ± 4.31%
same,viability at 10 µM,[1]; [3],78.2 ± 3.76%
same,viability at 20 µM,[1]; [4],86.9 ± 3.08%
same,Expression (p-α-s/GAPDH),midbrain p-α-s,0.24 ± 0.05
same,Positive cell number (astrocytes with GFAP positive expression),substantia nigra GFAP,81 ± 4
same,Expression (TH/GAPDH),midbrain TH,0.83 ± 0.06
same,Expression (CD11b/GAPDH),midbrain CD11b,0.83 ± 0.07
"CC(Br)C(Br)COc1cc(/C=C/S(=O)(=O)CCc2ccc(OCC(F)(F)F)cc2)ccc1OC(=O)Nc1ccsc1 (centres unmarked) [Compound K1-3, (E)-2-(2,3-dibromobutoxy)-4-{2-[4-(2,2,2-trifluoroethoxy)phenylethylsulfonyl]ethenyl}phenyl-N-(thien-3-yl)carbamate]",viability at 5 µM,[1]; [2],65.4 ± 4.31%
same,viability at 10 µM,[1]; [3],72.1 ± 2.77%
same,viability at 20 µM,[1]; [4],83.2 ± 1.76%
same,Expression (p-α-s/GAPDH),midbrain p-α-s,0.34 ± 0.10
same,Positive cell number (astrocytes with GFAP positive expression),substantia nigra GFAP,86 ± 5
same,Expression (TH/GAPDH),midbrain TH,0.91 ± 0.04
same,Expression (CD11b/GAPDH),midbrain CD11b,1.01 ± 0.08
"Cc1ccc(N2CCN(C(=O)Oc3ccc(/C=C/S(=O)(=O)CCCC(c4ccc(OC(=O)CN(C)C)cc4)N(C)C)cc3OC(=O)N(C)c3ccccc3)CC2)cc1 (centres unmarked) [Compound P1-1, (E)-4-{2-[4-(dimethylamino)-4-(4-(N,N-dimethylglycyloxy)phenyl)butylsulfonyl]ethenyl}-2-(N-methyl-N-phenylcarbamoyloxy)phenyl-4-(p-methylphenyl)piperazine-1-carboxylate]",viability at 5 µM,[1]; 48 h,75.3 ± 3.12%
same,viability at 10 µM,[1]; 48 h,86.6 ± 2.39%
same,viability at 20 µM,[1]; 48 h,92.2 ± 3.05%
same,Expression (p-α-s/GAPDH),midbrain p-α-s,0.48 ± 0.12
same,Positive cell number (astrocytes with GFAP positive expression),substantia nigra GFAP,73 ± 6
same,Expression (TH/GAPDH),midbrain TH,0.88 ± 0.04
same,Expression (CD11b/GAPDH),midbrain CD11b,0.70 ± 0.06
"O=C(NC(=O)C(F)(F)F)Oc1ccc(/C=C/S(=O)(=O)C(F)(F)c2ccc(Oc3ccccn3)cc2)cc1OC(=O)C(F)(F)C(F)(F)F [Compound L1-4, (E)-5-{2-[(4-[pyridin-2-yl-oxy]phenyl)difluoromethylsulfonyl]ethenyl}-2-[N-(2,2,2-trifluoroacetyl)carbamoyloxy]phenyl-2,2,3,3,3-pentafluoropropionate]",viability at 5 µM,[1]; [2],67.5 ± 3.52%
same,viability at 10 µM,[1]; [3],75.4 ± 2.59%
same,viability at 20 µM,[1]; [4],86.2 ± 1.86%
same,Expression (p-α-s/GAPDH),midbrain p-α-s,0.38 ± 0.08
same,Positive cell number (astrocytes with GFAP positive expression),substantia nigra GFAP,98 ± 4
same,Expression (TH/GAPDH),midbrain TH,0.79 ± 0.04
same,Expression (CD11b/GAPDH),midbrain CD11b,1.09 ± 0.09
